In ChEMBL document CHEMBL1177783, “Discovery of aminopyridines substituted with benzoxazole as orally active c-Met kinase inhibitors” (Bioorg Med Chem Lett, 2010):

Columns and labels:
[1] = target: Hepatocyte growth factor receptor (Homo sapiens, UniProt P08581); assay: Inhibition of recombinant c-MET by HTRF assay
hERG (KCNH2) = hERG (KCNH2) (Homo sapiens, UniProt Q12809); assay: Displacement of [3H]astemizole from human ERG expressed in HEK293 cells at 10 uM; conditions: HEK293 cells expressing human ERG, probe [3H]astemizole
hERG (KCNH2), sequence (Q12809 whole entry): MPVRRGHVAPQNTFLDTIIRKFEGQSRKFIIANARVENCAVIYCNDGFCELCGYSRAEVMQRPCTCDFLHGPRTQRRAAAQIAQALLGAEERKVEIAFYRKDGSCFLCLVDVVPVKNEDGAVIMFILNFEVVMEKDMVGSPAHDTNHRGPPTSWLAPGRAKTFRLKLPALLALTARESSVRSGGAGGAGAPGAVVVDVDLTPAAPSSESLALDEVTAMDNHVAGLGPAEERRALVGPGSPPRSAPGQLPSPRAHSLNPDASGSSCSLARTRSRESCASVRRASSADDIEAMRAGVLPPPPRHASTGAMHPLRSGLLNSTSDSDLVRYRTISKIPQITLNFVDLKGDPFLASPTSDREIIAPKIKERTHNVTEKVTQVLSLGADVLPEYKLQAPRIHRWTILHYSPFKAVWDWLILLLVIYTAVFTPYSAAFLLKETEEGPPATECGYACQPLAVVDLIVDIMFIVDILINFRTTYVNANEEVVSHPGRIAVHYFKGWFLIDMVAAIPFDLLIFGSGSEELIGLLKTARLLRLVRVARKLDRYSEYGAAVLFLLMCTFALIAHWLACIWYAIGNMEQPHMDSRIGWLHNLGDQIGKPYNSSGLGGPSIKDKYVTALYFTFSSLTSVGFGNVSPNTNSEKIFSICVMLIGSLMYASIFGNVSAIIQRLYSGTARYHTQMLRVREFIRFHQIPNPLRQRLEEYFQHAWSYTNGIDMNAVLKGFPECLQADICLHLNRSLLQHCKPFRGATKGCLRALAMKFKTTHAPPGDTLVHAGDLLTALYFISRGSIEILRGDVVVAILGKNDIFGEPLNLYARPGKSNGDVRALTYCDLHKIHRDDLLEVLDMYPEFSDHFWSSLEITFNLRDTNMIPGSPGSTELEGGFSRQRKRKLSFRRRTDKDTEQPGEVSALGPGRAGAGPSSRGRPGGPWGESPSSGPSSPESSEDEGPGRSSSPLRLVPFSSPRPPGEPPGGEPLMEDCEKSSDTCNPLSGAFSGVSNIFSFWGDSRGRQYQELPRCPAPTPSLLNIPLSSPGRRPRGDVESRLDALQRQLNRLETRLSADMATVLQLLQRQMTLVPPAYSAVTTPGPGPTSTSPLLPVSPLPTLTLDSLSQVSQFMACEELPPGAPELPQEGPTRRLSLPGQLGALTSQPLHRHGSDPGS

[2] = Oral bioavailability in rat at 10 mg/kg; format: ADME, organism-based; conditions: in vivo
[3] = AUC in rat at 10 mg/kg, iv; format: ADME, organism-based; design: dose 10 mg/kg, route intravenous; conditions: plasma
[4] = Volume of distribution at steady state in rat at 10 mg/kg, iv; format: ADME, organism-based; design: dose 10 mg/kg, route intravenous; conditions: in vivo, read-out: Vdss
[5] = Clearance in rat at 10 mg/kg, iv; format: ADME, organism-based; design: dose 10 mg/kg, route intravenous; conditions: in vivo
[6] = AUC in rat at 10 mg/kg, po; format: ADME, organism-based; design: dose 10 mg/kg, route oral; conditions: plasma
[7] = Cmax in rat at 10 mg/kg, po; format: ADME, organism-based; design: dose 10 mg/kg, route oral; conditions: in vivo

Hepatocyte growth factor receptor, sequence (P08581 whole entry): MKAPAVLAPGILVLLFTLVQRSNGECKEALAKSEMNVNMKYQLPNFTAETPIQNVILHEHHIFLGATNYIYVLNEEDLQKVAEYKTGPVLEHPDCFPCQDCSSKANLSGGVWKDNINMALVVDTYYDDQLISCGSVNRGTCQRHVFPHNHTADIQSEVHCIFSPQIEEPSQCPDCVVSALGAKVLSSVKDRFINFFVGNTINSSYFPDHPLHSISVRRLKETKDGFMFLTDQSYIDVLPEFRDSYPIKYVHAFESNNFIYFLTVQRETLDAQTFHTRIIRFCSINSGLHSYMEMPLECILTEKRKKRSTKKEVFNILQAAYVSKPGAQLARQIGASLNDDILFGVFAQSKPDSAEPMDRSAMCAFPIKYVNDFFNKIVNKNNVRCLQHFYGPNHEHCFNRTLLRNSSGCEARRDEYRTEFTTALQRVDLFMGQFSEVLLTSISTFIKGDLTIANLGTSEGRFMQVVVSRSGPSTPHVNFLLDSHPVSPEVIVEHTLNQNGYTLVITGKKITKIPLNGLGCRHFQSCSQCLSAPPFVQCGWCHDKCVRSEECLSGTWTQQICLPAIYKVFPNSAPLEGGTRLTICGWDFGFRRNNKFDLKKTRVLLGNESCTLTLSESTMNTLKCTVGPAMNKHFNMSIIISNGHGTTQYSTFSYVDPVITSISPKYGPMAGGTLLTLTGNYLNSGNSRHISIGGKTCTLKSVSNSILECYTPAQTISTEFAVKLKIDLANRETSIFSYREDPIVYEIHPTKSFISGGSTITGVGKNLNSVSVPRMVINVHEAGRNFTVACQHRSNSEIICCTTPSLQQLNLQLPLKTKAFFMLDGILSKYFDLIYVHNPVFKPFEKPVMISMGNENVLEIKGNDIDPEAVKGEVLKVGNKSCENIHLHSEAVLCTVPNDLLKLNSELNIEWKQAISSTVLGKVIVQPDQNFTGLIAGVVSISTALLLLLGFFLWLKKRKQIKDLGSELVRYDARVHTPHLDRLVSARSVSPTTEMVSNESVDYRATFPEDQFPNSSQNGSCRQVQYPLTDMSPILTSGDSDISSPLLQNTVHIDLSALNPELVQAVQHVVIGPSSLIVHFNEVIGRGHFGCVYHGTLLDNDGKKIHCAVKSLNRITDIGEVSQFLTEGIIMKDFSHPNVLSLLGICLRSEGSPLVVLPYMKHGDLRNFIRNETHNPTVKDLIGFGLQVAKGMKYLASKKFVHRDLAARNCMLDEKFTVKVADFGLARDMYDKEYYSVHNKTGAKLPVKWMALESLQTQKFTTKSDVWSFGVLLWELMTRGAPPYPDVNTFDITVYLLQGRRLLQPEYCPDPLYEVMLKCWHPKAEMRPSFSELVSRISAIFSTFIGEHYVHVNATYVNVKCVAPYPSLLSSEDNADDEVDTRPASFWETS

SMILES | IC50 [1] [nM] | other results
CNc1ncc(-c2cnn(C3CCNCC3)c2)cc1-c1nc2ccccc2o1 | > 10000 | 
Nc1ncc(-c2cccnc2)cc1-c1nc2ccccc2o1 | > 10000 | 
CS(=O)(=O)N1CCC(n2cc(-c3cnc(N)c(-c4nc5ccccc5o4)c3)cn2)CC1 | 371 | 
Cn1cc(-c2cnc(N)c(-c3nc4ccccc4o3)c2)cn1 | 2100 | inhibition at 10 µM (hERG (KCNH2)): 15%
CN(C)CC(=O)N1CCC(n2cc(-c3cnc(N)c(-c4nc5ccccc5o4)c3)cn2)CC1 | 60 | 
COC(=O)N1CCC(n2cc(-c3cnc(N)c(-c4nc5ccccc5o4)c3)cn2)CC1 | 58 | 
CC(=O)N1CCC(n2cc(-c3cnc(N)c(-c4nc5ccccc5o4)c3)cn2)CC1.Cl | 3 | bioavailability [2]: 47%; AUC [3]: 5600 ng·h/mL; Vd [4]: 2.4 L/kg; clearance [5]: 30 mL/min/kg; AUC [6]: 2700 ng·h/mL; Cmax [7]: 600 ng/mL
CNc1ncc(-c2cnn(C)c2)cc1-c1nc2ccccc2o1 | > 10000 | 
c1ccc2oc(-c3cncc(-c4cnn(C5CCNCC5)c4)c3)nc2c1 | > 10000 | 
Nc1ncc(-c2cnn(C3CCOCC3)c2)cc1-c1nc2ccccc2o1 | 430 | 

Second part, led by results:

IC50 [1] [nM] | SMILES | other results
1300 | Nc1ncc(-c2cnn(CCO)c2)cc1-c1nc2ccccc2o1 | 
> 10000 | Cn1cc(-c2cncc(-c3nc4ccccc4o3)c2)cn1 | 
5200 | Nc1ncc(-c2ccncc2)cc1-c1nc2ccccc2o1 | 
140 | Nc1ncc(-c2cnn(C3CCN(C(=O)c4ccccc4)CC3)c2)cc1-c1nc2ccccc2o1 | 
357 | CCN(CC)C(=O)N1CCC(n2cc(-c3cnc(N)c(-c4nc5ccccc5o4)c3)cn2)CC1 | 
7 | CCC(=O)N1CCC(n2cc(-c3cnc(N)c(-c4nc5ccccc5o4)c3)cn2)CC1 | 
> 10000 | Cn1cc(-c2cnc(NCc3ccccc3)c(-c3nc4ccccc4o3)c2)cn1 | 
> 10000 | Nc1ncc(-c2ccccc2)cc1-c1nc2ccccc2o1 | 
26 | Nc1ncc(-c2cnn(C3CCN(C(=O)CO)CC3)c2)cc1-c1nc2ccccc2o1 | 
17 | COCC(=O)N1CCC(n2cc(-c3cnc(N)c(-c4nc5ccccc5o4)c3)cn2)CC1 | 
80 | Nc1ncc(-c2cnn(C3CCNCC3)c2)cc1-c1nc2ccccc2o1 | 
